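Cells were grown in 96-well plates and exposed to each compound for 48 hours at five concentrations; endpoints were interpolated linearly between bracketing concentrations, or set to the highest concentration if not reached. Abbreviation: GI50, concentration required for 50% inhibition of growth.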 Active and inactive are the calls of the source. No stated cut-off is given here; in the data, active = GI50 up to about 1.1 µM and inactive = higher. Bounds are passed on as bounds.

We go through eleven molecules from ChEMBL document CHEMBL1201862, “PubChem BioAssay data set” (2004).

Some test systems named below: 786-0; ACHN; HOP-92; IGROV-1; KM12; MDA-MB-231; MDA-N; NCI-H23; OVCAR-4; OVCAR-5; PC-3; RPMI-8226; RXF 393; SF-295; SK-MEL-2; SN12C; TK-10; CAKI-1; NCI-H226.
What all share (assay): inhibition of tumour cell growth, NCI panel, 48 h

For the molecule `Cc1ccc(S(=O)(=O)NC(=O)NC(CCC(N)=O)C(=O)O)cc1` (stereo not drawn), the GI50 was > 100 µM (inactive) with 786-0; > 100 µM (inactive) with ACHN; 64.3 µM (inactive) in the test on HOP-92; > 100 µM (inactive) in the test on IGROV-1; > 100 µM (inactive) in the test with KM12; > 100 µM (inactive) with MDA-MB-231. Besides, the GI50 in the test with MDA-N, in the test with NCI-H23, in the test on OVCAR-4, with OVCAR-5, in the test on PC-3 and in the test with RPMI-8226 was > 100 µM (inactive) in each case. For the same molecule, the GI50 in the test on RXF 393, with SF-295, in the test with SK-MEL-2, in the test on SN12C and in the test on TK-10 was > 100 µM (inactive) throughout.

`C/C(=N\n1c(Cc2ccccc2)n[nH]c1=O)c1ccccc1`: the GI50 is > 100 µM (inactive) in the test on 786-0; > 100 µM (inactive) with ACHN; > 100 µM (inactive) in the test on CAKI-1; 26.8 µM (inactive) with HOP-92; > 100 µM (inactive) with IGROV-1; > 100 µM (inactive) in the test with KM12. The GI50 in the test with MDA-MB-231, in the test with MDA-N, with NCI-H226, in the test with NCI-H23, in the test on OVCAR-4 and in the test on OVCAR-5 was > 100 µM (inactive) in each case. The GI50 in the test on PC-3, in the test on RPMI-8226, in the test with RXF 393, with SK-MEL-2, in the test on SN12C and in the test on TK-10 was > 100 µM (inactive) in each case.

On to `CC1=CC2(C)C=C[C@@H]1C(=O)[C@@]1(C)CC[C@@](O)(C(C)C)[C@H]1CC2`, for which the GI50 in the test on 786-0 is 17.3 µM (inactive); in the test with ACHN, 17.6 µM (inactive); in the test with HOP-92, 14.4 µM (inactive); in the test with IGROV-1, 26.2 µM (inactive); in the test with KM12 it was 20.3 µM (inactive); with MDA-MB-231, 17.5 µM (inactive). Moreover, the GI50 is 21.8 µM (inactive) in the test on MDA-N; 23.4 µM (inactive) with NCI-H226; 19.1 µM (inactive) in the test on NCI-H23; 17.8 µM (inactive) with OVCAR-4; 17.9 µM (inactive) in the test with OVCAR-5; 24.2 µM (inactive) in the test with PC-3. Moreover, the GI50 in the test on RPMI-8226 was 26.5 µM (inactive); in the test with RXF 393, 19.4 µM (inactive); with SF-295 it was 16.7 µM (inactive); with SK-MEL-2, 33.3 µM (inactive); with SN12C it was 20.9 µM (inactive); in the test on TK-10, 36.6 µM (inactive).

For the molecule `O=c1cc(-c2ccccc2F)[nH]c2ccc(N3CCCC3)cc12`, the GI50 is 0.0442 µM (active) with 786-0; < 0.001 µM (active) in the test with ACHN; < 0.001 µM (active) with CAKI-1; 0.792 µM (active) in the test on IGROV-1; 0.0955 µM (active) with KM12; 0.00122 µM (active) with MDA-MB-231. Also, the GI50 in the test on MDA-N was 0.0135 µM (active); in the test on NCI-H23 it was 0.00155 µM (active); in the test with OVCAR-4, 0.0269 µM (active); with OVCAR-5, 0.1 µM (active); in the test with PC-3, < 0.001 µM (active); with RPMI-8226, 0.0468 µM (active). Besides, the GI50 was 13 µM (inactive) in the test with RXF 393, 0.0167 µM (active) in the test with SK-MEL-2, 0.17 µM (active) in the test with SN12C and 0.237 µM (active) in the test with TK-10.

In the case of `Cc1ccc(OCC2CO2)c(Br)c1` (stereo not drawn), the GI50 is 19.5 µM (inactive) with 786-0; 5.5 µM (inactive) in the test on ACHN; 33.7 µM (inactive) in the test with CAKI-1; 14.7 µM (inactive) in the test with HOP-92; 15.5 µM (inactive) in the test with IGROV-1; 66.7 µM (inactive) with KM12. The GI50 was 21.9 µM (inactive) in the test on MDA-MB-231; 19.5 µM (inactive) with MDA-N; 15.9 µM (inactive) in the test with NCI-H226; 22.5 µM (inactive) with NCI-H23; 14.7 µM (inactive) in the test with OVCAR-4; 17.5 µM (inactive) with OVCAR-5. The GI50 in the test with PC-3 is 47.3 µM (inactive); in the test with RPMI-8226 it was 25.1 µM (inactive); in the test on RXF 393, 10.1 µM (inactive); in the test on SF-295, 21 µM (inactive); in the test with SN12C, 18.6 µM (inactive); in the test on TK-10, 30.3 µM (inactive).

For the molecule `CCOC(CN(C)C(=O)Nc1ccc(Cl)c(Cl)c1)OCC`, the GI50 with 786-0, with ACHN, in the test on CAKI-1, in the test on HOP-92, in the test on IGROV-1 and in the test on KM12 was > 10 µM (inactive) each time. The GI50 in the test on MDA-MB-231, with MDA-N, in the test on NCI-H226, with NCI-H23, in the test on OVCAR-4 and in the test with PC-3 was > 10 µM (inactive) in each case. For the same molecule, the GI50 with RPMI-8226, in the test on RXF 393, with SF-295, in the test on SK-MEL-2, with SN12C and in the test with TK-10 was > 10 µM (inactive) in each case.

Consider `O=[N+]([O-])c1ccc(N/N=C2/CC3=C2CCCCCCCCCC3)c([N+](=O)[O-])c1`, for which the GI50 was 80.9 µM (inactive) with 786-0; > 100 µM (inactive) in the test on ACHN; > 100 µM (inactive) in the test on CAKI-1; > 100 µM (inactive) in the test on IGROV-1; > 100 µM (inactive) in the test with KM12; 32.7 µM (inactive) with MDA-MB-231. In addition, the GI50 in the test with MDA-N, in the test on NCI-H226, with NCI-H23, in the test with OVCAR-4, in the test with OVCAR-5 and with PC-3 was > 100 µM (inactive) each time. The GI50 with RPMI-8226 is > 100 µM (inactive); with RXF 393, > 100 µM (inactive); in the test on SF-295, > 100 µM (inactive); in the test with SK-MEL-2, > 100 µM (inactive); in the test on SN12C, > 100 µM (inactive); in the test on TK-10 it was 94.4 µM (inactive).

For the molecule `O=[N+]([O-])c1ccc(Sc2c3ccccc3nc3ccccc23)cn1`, the GI50 with 786-0 was 2.59 µM (inactive); in the test with ACHN, 12.2 µM (inactive); in the test with CAKI-1, 5.61 µM (inactive); in the test with HOP-92, 4.28 µM (inactive); in the test with IGROV-1, 32.4 µM (inactive); with KM12, 33.1 µM (inactive). The GI50 is 18 µM (inactive) with MDA-MB-231; 14.3 µM (inactive) with MDA-N; > 100 µM (inactive) with NCI-H226; 15.9 µM (inactive) with NCI-H23; 21.2 µM (inactive) in the test on OVCAR-4; > 62.4 µM (inactive) in the test with OVCAR-5. The GI50 with PC-3 was 15.5 µM (inactive); in the test with RXF 393, 31.8 µM (inactive); in the test on SF-295 it was > 100 µM (inactive); with SK-MEL-2, 25.4 µM (inactive); in the test with SN12C, 18.7 µM (inactive); in the test with TK-10 it was 10.1 µM (inactive).

Regarding `CC(NC(=O)C(N)CC(=O)O)NC(=O)N1CCOCC1` (stereo not drawn), the GI50 in the test on 786-0, in the test with ACHN, in the test on CAKI-1, with IGROV-1, in the test with KM12 and in the test with MDA-MB-231 was > 100 µM (inactive) each time. In addition, the GI50 in the test with MDA-N, in the test on NCI-H226, in the test on NCI-H23, with OVCAR-4, in the test on OVCAR-5 and in the test with PC-3 was > 100 µM (inactive) throughout. Further, the GI50 with RPMI-8226, with RXF 393, with SF-295, in the test with SK-MEL-2, in the test on SN12C and in the test on TK-10 was > 100 µM (inactive) each time.

Turning to `CC1(C)CCC2=C(O1)c1ccccc1C(=O)C2=O` [LAPACHONE], the GI50 with 786-0 is 1.2 µM (inactive); in the test on CAKI-1, 1.03 µM (active); in the test with HOP-92, 3.15 µM (inactive); in the test with KM12, 1.36 µM (inactive); in the test on MDA-MB-231, 0.507 µM (active); in the test with MDA-N it was 0.2 µM (active). Also, the GI50 in the test on NCI-H226 was 1.35 µM (inactive); with NCI-H23, 0.427 µM (active); in the test with OVCAR-4, 0.684 µM (active); in the test on OVCAR-5, 0.571 µM (active); with PC-3, 0.847 µM (active); in the test on RPMI-8226, 0.284 µM (active). Also, the GI50 in the test with RXF 393 was 1.41 µM (inactive); in the test on SF-295, 0.7 µM (active); in the test with SK-MEL-2 it was 1.42 µM (inactive); in the test with SN12C, 0.51 µM (active); with TK-10, 2.24 µM (inactive).

As for `CC1OCC2OC(C)OC(C3C4=C(CC(C)(C)CC4=O)OC4=C3C(=O)CC(C)(C)C4)C2O1` (stereo not drawn), the GI50 in the test on 786-0, in the test with ACHN, in the test with CAKI-1, with HOP-92, with KM12 and in the test with MDA-MB-231 was > 100 µM (inactive) throughout. Also, the GI50 with MDA-N, with NCI-H226, with NCI-H23, in the test on OVCAR-5, in the test with PC-3 and in the test with RPMI-8226 was > 100 µM (inactive) throughout. Also, the GI50 with RXF 393, in the test with SF-295, in the test with SK-MEL-2, with SN12C and in the test on TK-10 was > 100 µM (inactive) throughout.
